Source: ChEMBL document CHEMBL1138495, “Inhibition of subgenomic hepatitis C virus RNA replication by acridone derivatives: identification of an NS3 helicase inhibitor” (J Med Chem, 2009)
Values after ≈ are worked out from the molar mass of the structure shown. Active and inactive are the calls of the source. No cut-off for these calls is given here.

Legend:
[1] = test system: Hepatitis C virus; experiment: Antiviral activity against HCV infected in human HuH5.2 assessed as inhibition of viral RNA synthesis after 4 days by Steady-Glo-luciferase assay; type: functional, organism-based, Hepacivirus hominis; settings: Huh-5-2, 96 h
[2] = Inhibition of ATPase activity of HCV […] expressed in Escherichia coli; set-up: species or system Hepacivirus hominis
[3] = test system: Hepacivirus hominis; experiment: Inhibition of HCV recombinant NS5B RNA polymerase expressed in Escherichia coli up to 100 uM by liquid scintillation counter
[4] = Cytostatic activity against human HuH5.2 after 3 days by MTS/PMS assay; type: ADME, Huh-5-2; settings: HuH5.2 cells
[5] = Cytotoxicity against MDBK cells after 3 days by MTS/PMS method; type: cell-based, Bos taurus; settings: cattle
[6] = test system: Bovine viral diarrhea virus 1; experiment: Antiviral activity against Bovine viral diarrhea virus infected in MDBK cells assessed as inhibition of virus-induced cytopathic effect after 4 to 5 days by microscopy; type: functional, organism-based; settings: Bovine viral diarrhea virus isolates and strains
[7] = test system: Vero; experiment: Cytostatic activity against african green monkey Vero cells; type: ADME, cell-based; settings: chlorocebus sabaeus
[8] = test system: Vero; experiment: Cytostatic activity against african green monkey Vero cells in presence of guanosine; type: ADME, cell-based; settings: chlorocebus sabaeus
[9] = biological target: DNA topoisomerase 2-alpha (Homo sapiens) (UniProt P11388); experiment: Inhibition of human topoisomerase 2
Sequence of DNA topoisomerase 2-alpha (Homo sapiens) (P11388 whole entry): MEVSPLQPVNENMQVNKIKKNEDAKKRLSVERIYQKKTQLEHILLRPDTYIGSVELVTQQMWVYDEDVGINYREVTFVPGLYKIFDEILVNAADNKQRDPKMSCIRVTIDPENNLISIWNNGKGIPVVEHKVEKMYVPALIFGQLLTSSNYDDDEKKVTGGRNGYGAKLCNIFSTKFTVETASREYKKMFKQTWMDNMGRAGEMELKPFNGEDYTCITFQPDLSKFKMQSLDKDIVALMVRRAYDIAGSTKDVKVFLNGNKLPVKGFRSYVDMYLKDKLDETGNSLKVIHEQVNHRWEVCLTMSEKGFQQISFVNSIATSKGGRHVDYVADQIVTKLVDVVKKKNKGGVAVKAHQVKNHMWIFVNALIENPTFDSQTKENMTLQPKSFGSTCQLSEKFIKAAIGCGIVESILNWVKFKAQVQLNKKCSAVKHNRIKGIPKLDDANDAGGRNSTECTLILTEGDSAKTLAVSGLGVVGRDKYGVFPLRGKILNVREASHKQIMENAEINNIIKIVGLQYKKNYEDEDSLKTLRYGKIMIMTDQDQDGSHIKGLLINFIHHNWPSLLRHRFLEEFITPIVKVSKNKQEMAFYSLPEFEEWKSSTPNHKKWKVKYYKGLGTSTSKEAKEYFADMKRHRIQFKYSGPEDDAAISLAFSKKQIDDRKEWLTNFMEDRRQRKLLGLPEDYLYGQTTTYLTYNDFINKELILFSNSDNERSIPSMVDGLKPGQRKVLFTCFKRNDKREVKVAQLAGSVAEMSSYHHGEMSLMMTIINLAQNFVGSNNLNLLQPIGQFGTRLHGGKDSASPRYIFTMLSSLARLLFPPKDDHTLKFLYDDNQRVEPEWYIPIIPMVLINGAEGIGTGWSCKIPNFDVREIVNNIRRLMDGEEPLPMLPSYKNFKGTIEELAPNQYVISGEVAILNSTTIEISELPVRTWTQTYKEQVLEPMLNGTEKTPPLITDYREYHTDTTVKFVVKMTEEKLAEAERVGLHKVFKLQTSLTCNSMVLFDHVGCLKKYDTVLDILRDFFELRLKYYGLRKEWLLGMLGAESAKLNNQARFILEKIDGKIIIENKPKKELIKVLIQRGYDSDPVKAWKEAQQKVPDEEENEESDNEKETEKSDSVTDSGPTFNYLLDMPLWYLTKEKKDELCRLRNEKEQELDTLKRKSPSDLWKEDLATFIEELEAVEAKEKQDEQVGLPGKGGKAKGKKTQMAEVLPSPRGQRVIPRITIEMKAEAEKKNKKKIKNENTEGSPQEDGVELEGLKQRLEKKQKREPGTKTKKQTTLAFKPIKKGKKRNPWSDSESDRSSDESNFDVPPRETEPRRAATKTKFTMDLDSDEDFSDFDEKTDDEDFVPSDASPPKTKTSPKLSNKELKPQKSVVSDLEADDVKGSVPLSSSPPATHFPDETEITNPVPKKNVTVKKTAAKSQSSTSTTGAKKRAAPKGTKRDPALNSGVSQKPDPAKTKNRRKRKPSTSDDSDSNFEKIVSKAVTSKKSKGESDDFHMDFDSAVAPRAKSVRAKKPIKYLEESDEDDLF

Structure (SMILES)	EC50 [1]	IC50 [2]	Activity [3]	CC50 at 72 h [4]	CC50 at 72 h [5]	EC50 [6]	Activity [7]	Activity [8]	Activity [9]
CCn1c2cc(Cl)c(N)cc2c(=O)c2c(O)cc(O)cc21	5 µg/mL (≈ 16.4 µM)	> 1 mM	inactive	> 50 µg/mL	–	–	–	–	–
COc1cc(O)c2c(=O)c3cc(N)c(N4CCN(c5ccccn5)CC4)cc3n(C)c2c1	13 µg/mL (≈ 30.1 µM)	> 1 mM	inactive	> 50 µg/mL	> 100 µg/mL	4 µg/mL (≈ 9.27 µM)	–	–	–
COc1cccc2c1c(=O)c1cc(N)c(N3CCN(c4ccccn4)CC3)cc1n2C	12.5 µg/mL (≈ 30.1 µM)	> 1 mM	inactive	28.5 µg/mL (≈ 68.6 µM)	–	–	–	–	–
COc1cc(OC)c2c(=O)c3cc(N)c(N4CCN(c5ccccc5)CC4)cc3n(C)c2c1	9 µg/mL (≈ 20.2 µM)	> 1 mM	inactive	34 µg/mL (≈ 76.5 µM)	–	–	–	–	–
COc1cc2c(cc1N)c(=O)c1c(O)cc(O)cc1n2C	5 µg/mL (≈ 17.5 µM)	> 1 mM	inactive	26 µg/mL (≈ 90.8 µM)	–	–	–	–	–
COc1cc(OC)c2c(=O)c3cc(N)c(N4CCN(c5ccc(C(F)(F)F)cn5)CC4)cc3n(C)c2c1	> 50 µg/mL	> 1 mM	inactive	> 50 µg/mL	–	–	–	–	–
COc1cc(OC)c2c(=O)c3cc(N)c(N4CCN(c5ccccn5)CC4)cc3[nH]c2c1	4 µg/mL (≈ 9.27 µM)	> 1 mM	inactive	19 µg/mL (≈ 44 µM)	–	–	–	–	–
COc1cc(O)c2c(=O)c3cc(N)c(Cl)cc3n(C)c2c1	14 µg/mL (≈ 45.9 µM)	> 1 mM	inactive	41 µg/mL (≈ 135 µM)	14 µg/mL (≈ 45.9 µM)	0.7 µg/mL (≈ 2.3 µM)	–	–	–
COc1cc(OC)cc(N(C)c2cc(N3CCN(c4ccccn4)CC3)c(N)cc2C(=O)O)c1	> 50 µg/mL	> 1 mM	inactive	> 50 µg/mL	–	–	–	–	–
COc1cc(OC)c2c(=O)c3cc(N)c(N4CCN(c5ccncc5)CC4)cc3n(C)c2c1	5.5 µg/mL (≈ 12.3 µM)	> 1 mM	inactive	> 50 µg/mL	–	–	Toxic	Non-toxic	–
Cc1cc(C)c2c(=O)c3cc(N)c(N4CCN(c5ccccn5)CC4)cc3n(C)c2c1C	5 µg/mL (≈ 11.7 µM)	> 1 mM	inactive	> 50 µg/mL	–	–	–	–	–
COc1cc(OCC(C)C)c2c(=O)c3cc(N)c(N4CCN(c5ccccn5)CC4)cc3n(C)c2c1	3.8 µg/mL (≈ 7.79 µM)	> 1 mM	inactive	27 µg/mL (≈ 55.4 µM)	–	–	Toxic	Non-toxic	–
COc1ccc2c(=O)c3cc(N)c(N4CCN(c5ccccn5)CC4)cc3n(C)c2c1	0.8 µg/mL (≈ 1.93 µM)	> 1 mM	inactive	11 µg/mL (≈ 26.5 µM)	–	–	–	–	–
COc1ccc(C(=O)c2ccc(N3CCN(c4ccccn4)CC3)c(N)c2)c(OC)c1	6.6 µg/mL (≈ 15.8 µM)	> 1 mM	inactive	15 µg/mL (≈ 35.8 µM)	–	–	–	–	–
COc1cc(O)c2c(=O)c3cc(N)c(Cl)cc3[nH]c2c1	8 µg/mL (≈ 27.5 µM)	> 1 mM	inactive	> 50 µg/mL	–	–	–	–	–
Cn1c2cc(N3CCN(c4nc5ccccc5o4)CC3)c(N)cc2c(=O)c2c(O)cc(O)cc21	17 µg/mL (≈ 37.2 µM)	> 1 mM	inactive	> 50 µg/mL	–	–	–	–	–
COc1cc(O)c2c(=O)c3cc(N)c(N4CCN(c5ccccc5)CC4)cc3n(C)c2c1	2.03 µg/mL (≈ 4.72 µM)	> 1 mM	inactive	8.5 µg/mL (≈ 19.7 µM)	–	–	–	–	–
COc1cc(OC)c2c(=O)c3cc(N)c(N4CCN(c5ccccn5)CC4)cc3n(C)c2c1	1.6 µg/mL (≈ 3.59 µM)	> 1 mM	inactive	50 µg/mL (≈ 112 µM)	> 100 µg/mL	> 100 µg/mL	Toxic	Non-toxic	inactive
COc1cc(O)c2c(=O)c3cc(N)c(OC)cc3n(C)c2c1	18 µg/mL (≈ 59.9 µM)	> 1 mM	inactive	> 50 µg/mL	–	–	–	–	–
Cn1c2cc(N3CCN(c4ccccn4)CC3)c(N)cc2c(=O)c2c(O)cc(O)cc21	1.7 µg/mL (≈ 4.07 µM)	> 1 mM	inactive	21 µg/mL (≈ 50.3 µM)	> 100 µg/mL	0.5 µg/mL (≈ 1.2 µM)	–	–	inactive
COc1cc2c(=O)c3cc(N)c(N4CCN(c5ccccn5)CC4)cc3n(C)c2cc1OC	6 µg/mL (≈ 13.5 µM)	> 1 mM	inactive	14 µg/mL (≈ 31.4 µM)	–	–	–	–	–
CCCOc1cc(OC)cc2c1c(=O)c1cc(N)c(N3CCN(c4ccccn4)CC3)cc1n2C	17 µg/mL (≈ 35.9 µM)	> 1 mM	inactive	> 50 µg/mL	–	–	–	–	–
COc1cc(OC)c2c(=O)c3cc(N)c(Cl)cc3n(CCC(C)C)c2c1	> 50 µg/mL	> 1 mM	inactive	> 50 µg/mL	–	–	–	–	–
Cn1c2cc(N3CCN(c4ccccc4)CC3)c(N)cc2c(=O)c2c(O)cc(O)cc21	4.4 µg/mL (≈ 10.6 µM)	> 1 mM	inactive	16.2 µg/mL (≈ 38.9 µM)	–	–	–	–	–

Structure (SMILES)	EC50 [1]	IC50 [2]	Activity [3]	CC50 at 72 h [4]	CC50 at 72 h [5]	EC50 [6]	Activity [7]	Activity [8]	Activity [9]
COc1cc(OCC(=O)O)c2c(=O)c3cc(N)c(N4CCN(c5ccccn5)CC4)cc3n(C)c2c1	35 µg/mL (≈ 71.5 µM)	> 1 mM	inactive	> 50 µg/mL	–	–	–	–	–
COc1cc(OC)c2c(=O)c3cc(F)c(N4CCN(c5ccccn5)CC4)cc3n(C)c2c1	> 50 µg/mL	> 1 mM	inactive	> 50 µg/mL	–	–	–	–	–
Nc1cc2c(=O)c3c(O)cc(O)cc3[nH]c2cc1Cl	19 µg/mL (≈ 68.7 µM)	> 1 mM	inactive	25 µg/mL (≈ 90.4 µM)	–	–	–	–	–
CCn1c2cc(Cl)c(N)cc2c(=O)c2c(OC)cc(OC)cc21	5 µg/mL (≈ 15 µM)	> 1 mM	inactive	14 µg/mL (≈ 42.1 µM)	–	–	–	–	–
Cn1ccc(=O)c2cc(N)c(N3CCN(c4ccccn4)CC3)cc21	11 µg/mL (≈ 32.8 µM)	> 1 mM	inactive	> 33 µg/mL	–	–	–	–	–
COc1cc(OC)c2c(=O)c3cc(N(C)C)c(N4CCN(c5ccccn5)CC4)cc3n(C)c2c1	1 µg/mL (≈ 2.11 µM)	> 1 mM	inactive	3 µg/mL (≈ 6.33 µM)	–	–	–	–	–
CCn1c2cc(N3CCN(c4ccccn4)CC3)c(N)cc2c(=O)c2c(OC)cc(OC)cc21	4 µg/mL (≈ 8.7 µM)	> 1 mM	inactive	11 µg/mL (≈ 23.9 µM)	–	–	–	–	–
COc1cc(OC)c2c(=O)c3cc(N)c(N4CCN(c5ccccc5OC)CC4)cc3n(C)c2c1	16 µg/mL (≈ 33.7 µM)	> 1 mM	inactive	> 50 µg/mL	–	–	–	–	–
Cn1c2ccccc2c(=O)c2cc(N)c(N3CCN(c4ccccn4)CC3)cc21	4 µg/mL (≈ 10.4 µM)	> 1 mM	inactive	29 µg/mL (≈ 75.2 µM)	–	–	–	–	–
COc1cc(OC)c2c(=O)c3ccc(N4CCN(c5ccccn5)CC4)cc3n(C)c2c1	2.3 µg/mL (≈ 5.34 µM)	> 1 mM	inactive	> 50 µg/mL	–	–	Toxic	Non-toxic	–
CCn1c2cc(Cl)c(N)cc2c(=O)c2c(O)cc(OC)cc21	4.5 µg/mL (≈ 14.1 µM)	> 1 mM	inactive	> 50 µg/mL	–	–	–	–	–
COc1cc(OC)c2c(=O)c3cc(N)c(OC)cc3n(C)c2c1	9 µg/mL (≈ 28.6 µM)	> 1 mM	inactive	> 50 µg/mL	–	–	–	–	–
COc1cc(O)c2c(=O)c3cc(N)c(N4CCN(c5nc6ccccc6o5)CC4)cc3n(C)c2c1	50 µg/mL (≈ 106 µM)	> 1 mM	inactive	> 50 µg/mL	–	–	–	–	–
COc1cc(OC)c2c(=O)c3cc(N)c(Cl)cc3[nH]c2c1	5.7 µg/mL (≈ 18.7 µM)	> 1 mM	inactive	13 µg/mL (≈ 42.7 µM)	–	–	–	–	–
COc1cc(OC)c2c(=O)cc(-c3ccc(N4CCN(c5ccccn5)CC4)c(N)c3)n(C)c2c1	> 50 µg/mL	> 1 mM	inactive	> 50 µg/mL	–	–	–	–	–
CCOc1cc(OC)cc2c1c(=O)c1cc(N)c(N3CCN(c4ccccn4)CC3)cc1n2C	4 µg/mL (≈ 8.7 µM)	> 1 mM	inactive	> 50 µg/mL	–	–	–	–	–
COc1cc(OC)c2c(=O)c3cc(N)c(N4CCN(c5ncccn5)CC4)cc3n(C)c2c1	> 50 µg/mL	> 1 mM	inactive	> 50 µg/mL	–	–	–	–	–
COc1cc(OC)c2c(=O)c3cc(N)c(Cl)cc3n(C)c2c1	20 µg/mL (≈ 62.7 µM)	> 1 mM	inactive	> 50 µg/mL	20 µg/mL (≈ 62.7 µM)	> 100 µg/mL	–	–	–
COc1cc(OC)cc(N(C)c2ccc(N)c(N3CCN(c4ccccn4)CC3)c2)c1	4.1 µg/mL (≈ 9.77 µM)	> 1 mM	inactive	7.2 µg/mL (≈ 17.2 µM)	–	–	–	–	–
COc1cc(OC)c2c(=O)c3cc(N)c(N4CCN(c5nc6ccccc6o5)CC4)cc3n(C)c2c1	27 µg/mL (≈ 55.6 µM)	> 1 mM	inactive	> 50 µg/mL	–	–	–	–	–
COc1cc(OC)c2c(=O)c3cc(N)c(N4CCN(c5ccccn5)CC4)cc3n(CCC(C)C)c2c1	10 µg/mL (≈ 19.9 µM)	> 1 mM	inactive	10 µg/mL (≈ 19.9 µM)	–	–	–	–	–
COc1ccc(C(=O)c2ccc(N3CCN(c4ccccn4)CC3)c(N)c2)c(O)c1	3.7 µg/mL (≈ 9.15 µM)	> 1 mM	inactive	> 50 µg/mL	–	–	–	–	–
Cn1c2cc(Cl)c(N)cc2c(=O)c2c(O)cc(O)cc21	1.48 µg/mL (≈ 5.09 µM)	> 1 mM	inactive	3 µg/mL (≈ 10.3 µM)	5 µg/mL (≈ 17.2 µM)	0.4 µg/mL (≈ 1.38 µM)	–	–	inactive
